# Reference: patent publication US8410161B2, “Thioxanthone ring system derivatives” (National Defense Medical Center, priority 2010, dated 2013)
# Assays:
# Type in all cases: cell-based
# A3 cell lines = assay: MTT assay, A3 cell lines (lung cancer stem cell)
# Excerpt: Please to FIG. 4B, various cell viabilities of the A3 cell lines can be obtained through the MTT assay and illustrated in FIG. 4B while the compounds No. 1˜30 are used to treat A3 cell lines, wherein A3 cell lines are lung cancer stem cell.
# A control cell lines = assay: MTT assay, A control cell lines (lung cancer cell)
# Excerpt: Please refer to Table 1 and FIGS. 4A-4C. According to a MTT assay (Table 1), various cell viabilities of the A control cell lines can be obtained and illustrated in FIG. 4A while the compounds No. 2˜30 are used to treat A control cell lines, wherein A control cell lines are lung cancer cell.
# [1] = MTT assay, HEL299 fibroblast; conditions: human
# Excerpt: Please refer to FIG. 4C, various cell viabilities of the HEL299 cell lines can be obtained through the MTT assay while the compounds No. 1˜30 are used to treat HEL299 cell lines, wherein HEL299 cell lines are fibroblast.
Compound,cell viabilities of A3 cell lines (MTT assay) (A3 cell lines),cell viabilities of A control cell lines (MTT assay) (A control cell lines),viability [1]
"O=c1c2ccccc2sc2c(Cl)c(Sc3cccc(Cl)c3)ccc12 [No. 30, 4-Chloro-3-(3-chlorophenylthio)-9H-thioxanthen-9-one]",92.2 ± 6.17%,97.7 ± 1.46%,101 ± 3.7%
"Cc1ccc(Sc2ccc3c(=O)c4ccccc4sc3c2Cl)cc1C [No. 13, 4-Chloro-3-(3,4-dimethylphenylthio)-9H-thioxanthen-9-one]",112 ± 1.86%,113 ± 5.86%,112 ± 11.2%
"CCSc1ccc2c(=O)c3ccccc3sc2c1Cl [No. 2, 4-Chloro-3-(ethylthio)-9H-thioxanthen-9-one]",72.7 ± 2.60%,85.1 ± 2.74%,34 ± 7.95%
"O=c1c2ccccc2sc2c(Cl)c(Cl)ccc12 [No. 1, 3,4-dichloro-9H-thioxanthen-9-one]",83.7 ± 6.22%,–,68.5 ± 12%
"CCc1ccccc1Sc1ccc2c(=O)c3ccccc3sc2c1Cl [No. 18, 4-Chloro-3-(2-ethylphenylthio)-9H-thioxanthen-9-one]",77.2 ± 5.23%,73.2 ± 10.2%,104 ± 14.2%
"O=c1c2ccccc2sc2c(Cl)c(Sc3ccc(Br)cc3)ccc12 [No. 22, 3-(4-Bromophenylthio)-4-chloro-9H-thioxanthen-9-one]",70.8 ± 3.86%,104 ± 1.89%,66.1 ± 0.66%
"CC(C)c1ccc(Sc2ccc3c(=O)c4ccccc4sc3c2Cl)cc1 [No. 20, 4-Chloro-3-(4-isopropylphenylthio)-9H-thioxanthen-9-one]",93.9 ± 6.97%,74.6 ± 11.2%,110 ± 14.3%
"CC(C)c1ccccc1Sc1ccc2c(=O)c3ccccc3sc2c1Cl [No. 21, 4-Chloro-3-(2-isopropylphenylthio)-9H-thioxanthen-9-one]",93.7 ± 6.01%,83.5 ± 12.6%,107 ± 5.4%
"COc1ccc(Sc2ccc3c(=O)c4ccccc4sc3c2Cl)cc1 [No. 17, 4-Chloro-3-(4-methoxylphenylthio)-9H-thioxanthen-9-one]",89.4 ± 1.88%,97.1 ± 8.74%,109 ± 14.5%
"Cc1ccc(C)c(Sc2ccc3c(=O)c4ccccc4sc3c2Cl)c1 [No. 11, 4-Chloro-3-(2,5-dimethylphenylthio)-9H-thioxanthen-9-one]",96.9 ± 5.20%,105 ± 2.56%,94.4 ± 10.1%
"CCOc1cccc(Sc2ccc3c(=O)c4ccccc4sc3c2Cl)c1 [No. 19, 4-Chloro-3-(3-ethoxylphenylthio)-9H-thioxanthen-9-one]",98.2 ± 4.79%,91.3 ± 1.74%,90.3 ± 14.4%
"COc1ccccc1Sc1ccc2c(=O)c3ccccc3sc2c1Cl [No. 15, 4-Chloro-3-(2-methoxylphenylthio)-9H-thioxanthen-9-one]",99.0 ± 3.41%,85.4 ± 9.66%,73 ± 12.3%
"Cc1ccc(Sc2ccc3c(=O)c4ccccc4sc3c2Cl)cc1 [No. 9, 4-Chloro-3-(p-tolylthio)-9H-thioxanthen-9-one]",115 ± 4.55%,119 ± 4.69%,98.4 ± 12.8%
"O=c1c2ccccc2sc2c(Cl)c(SC3CCCC3)ccc12 [No. 5, 4-Chloro-3-(cyclopentylthio)-9H-thioxanthen-9-one]",107 ± 7.17%,108 ± 7.69%,89.5 ± 13.7%
"Cc1ccccc1Sc1ccc2c(=O)c3ccccc3sc2c1Cl [No. 7, 4-Chloro-3-(o-tolylthio)-9H-thioxanthen-9-one]",81.6 ± 4.98%,103 ± 2.86%,91.1 ± 18.7%
"Cc1cccc(Sc2ccc3c(=O)c4ccccc4sc3c2Cl)c1 [No. 8, 4-Chloro-3-(m-tolylthio)-9H-thioxanthen-9-one]",116 ± 1.49%,120 ± 1.51%,74.8 ± 4.04%
